According to patent US8632815B2 (Laila Pharmaceutical Pvt., Ltd., priority 2008, dated 2014):

Legend:
[1] = Particle size distribution, Malvern particle size analyzer; type: physicochemical; details: laser diffraction
Experimental: The study was conducted using Malvern particle size analyzer. The map of scattering intensity versus angle is the primary source of information used to calculate the particle size. The scattering of particles is accurately predicted by the Mie scattering model allowing accurate sizing across the widest possible dynamic range. During the laser diffraction measurement, particles are passed through a focused laser beam. These particles scatter light at an angle that is inversely proportional to their size. The angular intensity of the scattered light is then measured by a series of photosensitive detectors. The advantage of this study is that there is no sample preparation involved.
This is a clear indication that the process of nanoemulsification followed has effectively transformed the large sized particles to nanosized coated curcuminoid particles. Additional peaks can be observed which is contributed by the high molecular weight excipients used to prepare the formulation.

[2] = test system: selenite-induced cataract in Wistar rat pups; test: In vivo anti-cataract efficacy, selenite-induced cataract
Experimental: Animals were grouped into Group I (control), Group II (sodium selenite) and Group III (treatment).
Two hours later Sodium Selenite (25 μM/kg·bw of 5 ml/kg·bw) was injected subcutaneously to both group II and III animals, thereafter 5 μl of LP002-09 was instilled topically to the eyes of group III animals only.
All animals were observed individually through out the observation period for any clinical signs and mortality. On the examination day i.e. when the pups first opened their eyes, the development of cataract was observed by the presence or absence of opacity by dilating the pupil with 0.8% tropicamide.
The cataract was scored on a scale of 0 to 4 according to procedure described by Muranov et al., (2004). Grade 0 was a normal clear lens, Grade 1 was a subcapsular opacity; Grade 2 was nuclear cataract, Grade 3 was strong nuclear cataract; Grade 4 was dense opacity involving entire lens and the results have been presented in below table 1

[3] = of 20 eyes, rat pups, sodium selenite s.c.

particle size [1] [nm]	particle size ([1]; listed as curcumin) [nm]	SMILES	Total Percentage of cataract ([2]; 20 eyes, rat pups) [%]	Grade (Mean ± S.D.) ([2]; cataract scale 0 to 4, LP002-09 P < 0.0001 vs. Sodium Selenite treated)	Dense opacity involving entire lens, Score 4 (number of eyes) [2, 3]	No Opacity, Score 0 (number of eyes) [2, 3]	Nuclear cataract, Score 2 (number of eyes) [2, 3]	Strong Nuclear cataract, Score 3 (number of eyes) [2, 3]	Subcapsular opacity, Score 1 (number of eyes) [2, 3]	eyes with dense opacity type cataract ([2]; percent of eyes) [%]	eyes with nuclear cataract ([2]; percent of eyes) [%]	eyes with strong nuclear cataract ([2]; percent of eyes) [%]
373	374	COc1cc(/C=C/C(=O)CC(=O)/C=C/c2ccc(O)c(OC)c2)ccc1O [unformulated curcumin 98%, Curcumin]	–	–	–	–	–	–	–	–	–	–
–	–	O=[Se](O)O [Sodium Selenite]	100	3.6 ± 0.68	14	0	2	4	0	70	10	20
